Values quoted from earlier work as cited in PubChem BioAssay AID1259409 (Chemical Carcinogenesis Research Information System (CCRIS), 2018).
Several values for one entry are separate records, joined by “and”; a condition that tells them apart may be missing. Identical values can stand only once.

Tested on: rodent chemically induced tumor inhibition, incidence and multiplicity
Experiment: CCRIS tumor inhibitor studies
Settings: Carcinogen: 7,12-DIMETHYLBENZ[A]ANTHRACENE, 57-97-6, Route [Inhibitor]: DERMAL, Species: MOUSE, Target Tissue: Type of Lesion: SKIN: PAPILLOMA, Promoter: 12-O-TETRADECANOYLPHORBOL-13-ACETATE, 16561-29-8

In the case of `CC1=C(/C=C/C(C)=C/C=C/C(C)=C/C(=O)O)C(C)(C)CCC1`, the “tumour outcome (control, treated, inhibition, significance)” value (Dose [Inhibitor]: 17 NMOL IN 0.2 ML ACETONE 1 HR PRIOR TO EACH PROMOTER DOSE BEGINNING AT WEEK 10 OF PROMOTION AND CONTINUING FOR DURATION, Strain/Sex: CD-1/FEMALE, Dose [Carcinogen]: 200 NMOL IN 0.2 ML ACETONE ONCE) is listed as 100%, 95%, 5%, p>0.3, the “tumour outcome (control, treated, inhibition, significance)” value (Dose [Inhibitor]: 17 NMOL IN 0.2 ML ACETONE 1 HR PRIOR TO EACH PROMOTER DOSE FOR 12 WK (STUDY DURATION: 14 WK), Strain/Sex: SENCAR/FEMALE, Dose [Carcinogen]: 200 NMOL IN 0.2 ML ACETONE ONCE) is listed as 100%, 87%, 13%, not calculated and the “tumour outcome (control, treated, inhibition, significance)” value (Dose [Inhibitor]: 17 NMOL IN 0.2 ML ACETONE 1 HR PRIOR TO EACH PROMOTER DOSE FOR 20 WK (STUDY DURATION: 22 WK), Strain/Sex: CD-1/FEMALE, Dose [Carcinogen]: 200 NMOL IN 0.2 ML ACETONE ONCE) is listed as 94%, 62%, 34%, not calculated. The “tumour outcome (control, treated, inhibition, significance)” value (Dose [Inhibitor]: 17 NMOL IN 0.2 ML ACETONE 1 HR PRIOR TO EACH PROMOTER DOSE FOR DURATION OF STUDY (STUDY DURATION: 27 WK), Strain/Sex: CD-1/FEMALE, Dose [Carcinogen]: 200 NMOL IN 0.2 ML ACETONE ONCE) was 100%, 60%, 40%, p<0.02, the “tumour outcome (control, treated, inhibition, significance)” value (Dose [Inhibitor]: 17 NMOL IN 0.2 ML ACETONE 1 HR PRIOR TO EACH PROMOTER DOSE FOR FIRST 10 WK OF PROMOTION (STUDY DURATION: 27 WK), Strain/Sex: CD-1/FEMALE, Dose [Carcinogen]: 200 NMOL IN 0.2 ML ACETONE ONCE) was 100%, 90%, 10%, p>0.3 and the “tumour outcome (control, treated, inhibition, significance)” value (Dose [Inhibitor]: 17 NMOL IN 0.2 ML ACETONE 2/WK 1 HR BEFORE EACH PROMOTER APPLICATION STARTING 14 D AFTER CARCINOGEN APPLICATION AND CONT, Strain/Sex: CD-1/FEMALE, Dose [Carcinogen]: 0.2 UMOL IN 0.2 ML ACETONE ONCE) was 98%, 42%, 57%, not calculated. For the same molecule, the “tumour outcome (control, treated, inhibition, significance)” value (Dose [Inhibitor]: 17 NMOL IN 0.2 ML ACETONE 2/WK 1 HR BEFORE EACH PROMOTER APPLICATION STARTING 14 D AFTER CARCINOGEN APPLICATION AND CONT, Strain/Sex: CD-1/FEMALE, Dose [Carcinogen]: 0.2 UMOL ONCE) was 100%, 80%, 20%, not significant, the “tumour outcome (control, treated, inhibition, significance)” value (Dose [Inhibitor]: 17 NMOL IN 0.2 ML ACETONE 2/WK 24 HR AFTER EACH PROMOTER TREATMENT STARTING 14 D AFTER CARCINOGEN TREATMENT AND CONTINUI, Strain/Sex: CD-1/FEMALE, Dose [Carcinogen]: 0.2 UMOL IN 0.2 ML ACETONE ONCE) was 98%, 96%, 2%, not significant and the “tumour outcome (control, treated, inhibition, significance)” value (Dose [Inhibitor]: 34 NMOL IN 0.2 ML ACETONE 2/WK 1 HR BEFORE EACH PROMOTER APPLICATION STARTING 14 D AFTER CARCINOGEN APPLICATION AND CONT, Strain/Sex: CD-1/FEMALE, Dose [Carcinogen]: 0.2 UMOL IN 0.2 ML ACETONE ONCE) was 90%, 55%, 39%, not calculated and 90%, 48%, 47%, not calculated. For the same molecule, the “tumour outcome (control, treated, inhibition, significance)” value (Dose [Inhibitor]: 68 NMOL IN 0.2 ML ACETONE 2/WK 1 HR BEFORE EACH PROMOTER APPLICATION STARTING 14 D AFTER CARCINOGEN APPLICATION AND CONT, Strain/Sex: CD-1/FEMALE, Dose [Carcinogen]: 0.2 UMOL IN 0.2 ML ACTEONE ONCE) was 95%, 53%, 44%, not calculated.
